pEC50, pKd: −log10 of the molar value. Where two headings read alike, the source gives them in different places.
Legend:
Integrase = Integrase (Human immunodeficiency virus type 1 group M subtype B, UniProt P04585)
Reverse transcriptase = Reverse transcriptase (Human immunodeficiency virus type 1 group M subtype B, UniProt P04585)
Tat = Tat (Human immunodeficiency virus type 1 group M subtype B, UniProt P04608)
HIV-1 = settings: HIV-1, target Unknown, cited from earlier work
Vpr = Vpr (Human immunodeficiency virus type 1 group M subtype B, UniProt P12520); settings: read-out: Inhibitory effect (uM), EC50, Vpr; HIV-1 target Vpr; cited from earlier work
Protease = Protease (Human immunodeficiency virus type 1 group M subtype B, UniProt P04585); settings: HIV-1 target Protease; read-out: Inhibitory effect (uM), IC50, Protease; cited from earlier work
[1] = system: plasmepsin enzyme target from the malarial parasite Plasmodium malariae; settings: complexes solved by x-ray diffraction (1msm, 2anl); cited from earlier work
gp120 = molecular target: T1, gp120 (Human immunodeficiency virus type 1 group M subtype B, UniProt P03375); settings: read-out: Inhibitory effect (uM), ED50, gp120; HIV-1 target gp120; cited from earlier work
T1 construct: V3 region of HIV-1 envelope glycoprotein gp120 to galactosylceramide

HSV2 protease = molecular target: T2, HSV2 protease (Human herpesvirus 2, UniProt P89449); test: Surface Plasmon Resonance (SPR), dissociation constant for HSV protease; format: binding, herpes simplex virus (HSV2)
T2 construct: HSV2 protease Kd (uM)
From the text: (§1) The first experimental verification of our computational predictions were with TMPyP4, the top ranking inhibitor predicted to bind to all known herpesvirus proteases (see FIG. 3). This is also the inhibitor that we have characterized most computationally and experimentally, so we focus primarily on this inhibitor. […] Traditional approaches to design an inhibitor against this molecule is likely to fail since it has an extremely shallow active site pocket. However, protease dimerisation is essential for protein function and our top ranking inhibitor not only fit around the active site (covering it) but also intercolated itself in the dimer interface. Our predicted mode of action was therefore two fold: covering the surface of the active site, and inhibition of dimerisation in a reversible manner (i.e., as dimers formed, our inhibitor would bind which would disrupt the dimer, resulting in the inhibitor binding weakly and likely released, which would lead to reformation of the dimer, and so on). FIG. 3 illustrates this mode of action. […] TMPyP4 is the only known compound that is capable of inhibiting all three classes of herpesviruses.
(§2) Four inhibitors were evaluated; our top ranking one (TMPyP4) clearly binds to all three proteases as predicted. […] A third inhibitor, GW8510, predicted to bind fails (i.e., a misprediction). […]

[2] = system: chloroquine-sensitive strain 3D7 of P. falciparum; test: P. falciparum growth inhibition in culture, strain 3D7; format: cell-based, Plasmodium falciparum
[3] = system: chloroquine-resistant strain K1 of P. falciparum; test: P. falciparum growth inhibition in culture, strain K1; format: cell-based, Plasmodium falciparum; settings: Plasmodium falciparum, K1
HSV protease = test: Surface Plasmon Resonance, HSV protease; format: binding; settings: SPR, FIG. 4
Protocol: (§3) Four inhibitors were evaluated; our top ranking one (TMPyP4) clearly binds to all three proteases as predicted. […] A third inhibitor, GW8510, predicted to bind fails (i.e., a misprediction). […] Our inhibitor prediction is completely consistent with the observed experimental data which is verified further by cell culture studies in FIG. 4 and compared to existing antiherpes drugs.

HSV-1 strain F = test: HSV-1 infection of Vero cells, virus titer; format: cell-based
CMV = CMV infection of HFF cells, virus titer; format: cell-based; settings: FIG. 5
KSHV = KSHV inhibition, different assay, fold reduction; format: cell-based; settings: FIG. 5
[4] = system: herpesvirus lytic phase viral growth; test: Herpesvirus lytic phase viral growth in vitro; format: cell-based; settings: dose-dependent, starting at micromolar concentrations
CMV protease [5] = molecular target: T3, CMV protease (Human cytomegalovirus, UniProt P16753); test: Surface Plasmon Resonance (SPR), dissociation constant for CMV protease; format: binding; set-up: CMV protease Kd (uM)
From the text: as §1, §2

KSHV protease [6] = molecular target: T4, KSHV protease (Human herpesvirus 8 type P, UniProt Q2HRB6); test: Surface Plasmon Resonance (SPR), dissociation constant for KSHV protease; format: binding, Kaposi's sarcoma virus (KSHV); set-up: KSHV protease Kd (uM)
From the text: as §1, §2

CMV protease [7] = molecular target: T3, CMV protease; test: Surface Plasmon Resonance, CMV protease; format: binding; set-up: herpes simplex virus (HSV) proteases (including HSV2, VZV, EBV, CMV, and KSHV); settings: SPR, FIG. 4
Protocol: as §3

KSHV protease [8] = molecular target: T4, KSHV protease; test: Surface Plasmon Resonance, KSHV protease; format: binding; set-up: herpes simplex virus (HSV) proteases (including HSV2, VZV, EBV, CMV, and KSHV); settings: SPR, FIG. 4
Protocol: as §3

gp41 = settings: HIV-1 target gp41; read-out: Inhibitory effect (uM), IC50, gp41; cited from earlier work

Sequence of Tat (P04608 whole entry): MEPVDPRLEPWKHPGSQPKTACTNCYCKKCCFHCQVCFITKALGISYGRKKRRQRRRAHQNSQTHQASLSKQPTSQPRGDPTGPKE
T4 sequence (Q2HRB6 1-230): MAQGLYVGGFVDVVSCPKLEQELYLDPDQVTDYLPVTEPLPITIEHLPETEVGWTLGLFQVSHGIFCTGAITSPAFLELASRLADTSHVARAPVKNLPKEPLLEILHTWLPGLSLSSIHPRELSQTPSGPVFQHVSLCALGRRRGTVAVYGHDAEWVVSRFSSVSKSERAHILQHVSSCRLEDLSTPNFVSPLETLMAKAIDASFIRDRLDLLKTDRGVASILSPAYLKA
T3 sequence (P16753 1-256): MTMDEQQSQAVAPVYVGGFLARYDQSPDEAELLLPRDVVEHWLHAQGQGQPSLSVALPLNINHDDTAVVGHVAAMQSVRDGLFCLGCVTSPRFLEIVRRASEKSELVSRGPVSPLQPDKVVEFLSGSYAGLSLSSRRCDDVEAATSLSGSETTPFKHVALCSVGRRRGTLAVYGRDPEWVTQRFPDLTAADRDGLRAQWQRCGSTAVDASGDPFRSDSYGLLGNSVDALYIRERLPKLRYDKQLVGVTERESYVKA
T2 sequence (P89449 1-247): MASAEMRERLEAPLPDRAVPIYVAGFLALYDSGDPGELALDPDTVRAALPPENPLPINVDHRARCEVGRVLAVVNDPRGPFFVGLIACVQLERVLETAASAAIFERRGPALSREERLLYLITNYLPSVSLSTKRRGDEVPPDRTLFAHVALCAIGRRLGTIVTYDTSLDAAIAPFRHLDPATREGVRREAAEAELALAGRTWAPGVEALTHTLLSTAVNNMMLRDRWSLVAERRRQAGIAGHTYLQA
Sequence of Vpr (P12520 whole entry): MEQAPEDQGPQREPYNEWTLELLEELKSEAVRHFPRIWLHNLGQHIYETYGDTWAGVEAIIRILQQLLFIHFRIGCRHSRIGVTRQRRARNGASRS

CCN(CC)CCCC(C)Nc1ccnc2cc(Cl)ccc12 (stereo not drawn) [Chloroquine]
IC50 (Integrase; read-out: Inhibitory effect (uM), IC50, Integrase; HIV-1 target Integrase; cited from earlier work): 5.14 µM
IC50 (Reverse transcriptase; read-out: Inhibitory effect (uM), IC50, Reverse transcriptase; HIV-1 target Reverse transcriptase; cited from earlier work): > 300 µM
IC50 (Tat; read-out: Inhibitory effect (uM), IC50, Tat; HIV-1 target Tat; cited from earlier work): < 50 µM

CCC(C)c1c(O[C@H]2C[C@@H](O[C@H]3C[C@@H](O)[C@H](O)[C@@H](C)O3)[C@H](O)[C@@H](C)O2)cc2cc3c(c(O)c2c1O)C(=O)C(O[C@H]1C[C@@H](O[C@H]2C[C@@H](O[C@H]4C[C@@H](O[C@H]5C[C@@H](O)[C@H](O)[C@@H](C)O5)[C@H](O)[C@@H](C)O4)[C@@H](OC(C)=O)[C@@H](C)O2)[C@H](O)[C@@H](C)O1)C(C(OC)C(=O)C(O)C(C)O)C3 (stereo partly drawn) [Durhamycin A]
IC50 (Tat; HIV-1 target Tat; read-out: Inhibitory effect (uM), IC50, Tat; cited from earlier work): 0.0048 µM

CC(C)S(=O)(=O)n1c(N)nc2ccc(/C(=N/O)c3ccccc3)cc21 [Enviroxime]
EC50 (HIV-1; read-out: Inhibitory effect (uM), EC50, target Unknown): > 36.5 µM

CO[C@@H]1[C@H](OC(=O)/C=C/C=C/C=C/C=C/C(=O)O)CC[C@]2(CO2)[C@H]1[C@@]1(C)O[C@@H]1CC=C(C)C [Fumagillin]
EC50 (Vpr): 0.015 µM
EC50 (HIV-1; printed EC, read-out: Inhibitory effect (uM), EC, target Unknown): > 0.2 µM

Cc1ccccc1CNC(=O)[C@H]1N(C(=O)[C@@H](O)[C@H](Cc2ccccc2)NC(=O)c2cccc(O)c2C)CSC1(C)C [KNI-764]
IC50 (Protease): > 0.05 µM
inhibition of HIV-1 protease and plasmepsin [1]: inhibits both HIV-1 protease and the plasmepsin enzyme target

CN(C)c1ccc(O)c2c1C[C@H]1C[C@H]3[C@H](N(C)C)C(O)=C(C(N)=O)C(=O)[C@@]3(O)C(O)=C1C2=O [Minocycline]
IC50 (Reverse transcriptase; HIV-1 target Reverse transcriptase; read-out: Inhibitory effect (uM), IC50, Reverse transcriptase; cited from earlier work): 1200 µM

Cc1ccc(C(=O)Nc2ccc(S(=O)(=O)O)c3cc(S(=O)(=O)O)cc(S(=O)(=O)O)c23)cc1NC(=O)c1cccc(NC(=O)Nc2cccc(C(=O)Nc3cc(C(=O)Nc4ccc(S(=O)(=O)O)c5cc(S(=O)(=O)O)cc(S(=O)(=O)O)c45)ccc3C)c2)c1 [Suramin]
IC50 (Integrase; HIV-1 target Integrase; read-out: Inhibitory effect (uM), IC50, Integrase; cited from earlier work): 2.4 µM
EC50 (gp120): 7.7 µM

C[n+]1ccc(-c2c3nc(c(-c4cc[n+](C)cc4)c4ccc([nH]4)c(-c4cc[n+](C)cc4)c4nc(c(-c5cc[n+](C)cc5)c5ccc2[nH]5)C=C4)C=C3)cc1 [TMPyP4, meso-5,10,15,20-Tetrakis-(N-methyl-4-pyridyl)porphine tetratosylate]
pKd (HSV2 protease): 4.40
pEC50 ([2]; Plasmodium falciparum, 3D7, Table 3 section A, mean of at least two measurements, read-out: ED50 in 3D7): 6.00
EC50 ([2]; Plasmodium falciparum, 3D7, Table 5, read-out: ED50 (μM) in 3D7): 1 µM
result of the 16 tested inhibitors in words (binding) ([2]; summary of Table 5): moderate binding
pEC50 ([3]; Table 3 section A, mean of at least two measurements, read-out: ED50 in K1): 6.00
EC50 ([3]; Table 5, read-out: ED50 (μM) in K1): 1 µM
disassociation constant (Kd), HSV protease (HSV protease): micromolar range
effect used together with acylovir (HSV-1 strain F; FIG. 5 bottom left panel, virus not named): almost completely eliminates all virus when used together
effectiveness after passage for several cycles with both acylovir and TMPyP4 (HSV-1 strain F; FIG. 5 bottom right panel, virus not named): still continues to be effective
inhibition of HSV, virus titer (HSV-1 strain F; Vero cells, HSV-1 strain F, FIG. 5): comparably or better than existing antiherpes drugs
inhibition of CMV, virus titer (CMV): comparably or better than existing antiherpes drugs
inhibition of KSHV (KSHV): inhibited KSHV
inhibition of lytic phase viral growth [4]: 90%
pKd (CMV protease [5]): 4.44
pKd (KSHV protease [6]): 4.48
disassociation constant (Kd), CMV protease (CMV protease [7]): micromolar range
disassociation constant (Kd), KSHV protease (KSHV protease [8]): micromolar range

Amphotericin B
IC50 (gp41): > 10 µM
